In patent publication US12370192B2, “Azole-fused pyridazin-3(2H)-one derivatives” (TAKEDA PHARMACEUTICAL COMPANY LIMITED, priority 2019, dated 2025):

Columns and labels:
human GPR139 receptor [1] = target: T1, human GPR139 receptor (Homo sapiens, UniProt Q6DWJ6); test: GPR139 Competition Binding (membrane-based, tritium-labeled ligand); settings: T-REx-CHO membranes with human GPR139; 6.5 nM tritium-labeled ligand; 11-point curve, 30 μM maximum concentration; read-out: GPR139 Binding Affinity (pKi) (converted)
T1 construct: expressed in transfected cells; host or cells: T-REx-CHO (Thermo Fisher Scientific), doxycycline-induced
T1 sequence (Q6DWJ6 1-353): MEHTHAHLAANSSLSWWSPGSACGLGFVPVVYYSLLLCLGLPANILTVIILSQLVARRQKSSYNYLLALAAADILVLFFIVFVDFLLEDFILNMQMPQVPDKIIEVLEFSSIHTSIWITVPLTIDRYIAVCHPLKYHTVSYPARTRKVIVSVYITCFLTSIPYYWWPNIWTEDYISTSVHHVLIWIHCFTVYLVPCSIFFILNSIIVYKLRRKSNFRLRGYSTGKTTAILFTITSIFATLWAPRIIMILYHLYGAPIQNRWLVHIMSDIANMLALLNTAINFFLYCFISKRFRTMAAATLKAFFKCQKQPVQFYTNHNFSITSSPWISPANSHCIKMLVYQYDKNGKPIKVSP
Experimental: OPR139 Competition Binding
This membrane-based assay measures the ability of compounds to competitively bind GPR139 in stably transfected TREx™-CHO membranes. To prepare the membranes, T-REx™-CHO (Thermo Fisher Scientific®) cells are stably expressed with human GPR139 receptor, whose expression is controlled by a tetracycline-inducible element. The cells are cultured in medium containing F-12K nutrient mixture-Kaighn's modification, 10% tetracycline-free FBS, Blasticidin S HCl (10 μg/mL) and Hygromycin B (200 μg/mL). GPR139 receptor expression is induced for 18 hours with 2 μg/mL doxycycline (Sigma D9891) in growth media. After addition of doxycycline, cells are harvested in PBS and pelleted by centrifugation for 5 minutes at 200×G. Liquid is aspirated off and cells are resuspended in ice cold lysis buffer (20 mM HEPES/5 mM EDTA pH 7.4/1× Roche® protease inhibitor). Samples are vortexed until homogenous and then placed on ice and homogenized using a Dounce homogenizer at 50% power (3 cycles, 10 strokes per cycle). Lysate is centrifuged at 4° C. for 10 minutes in a tabletop Sorvall® centrifuge at 2000×G. The supernatant is recovered and centrifuged in a Sorvall® ultracentrifuge at 35,000 rpm for 30 minutes at 4° C. The supernatant is discarded, and the remaining pellet resuspended in lysis buffer (20 mM HEPES/0.1 mM EGTA/Roche® protease inhibitor). Membrane protein concentration is determined using Thermo Fisher® BCA quantification kit and is aliquoted into microtubes. Tubes are snap frozen in liquid nitrogen and stored at −80° C. Prior to use, the membranes are removed from cold storage, thawed to room temperature, vortexed until homogenous and diluted in assay buffer (20 mM HEPES pH 7.3, 5 mM MgCl2, 1 mM CaCl2), 1× Thermo Scientific® Halt™ protease inhibitor (78429)).
The assay is run in 96-well, polypropylene, v-bottom plates (Greiner Bio-One® 651201). Test compound in DMSO is added to the wells of each plate (11-point dose response curve, 30 μM maximum concentration, 3-fold serial dilution). A fixed amount of tritium-labeled ligand, (S)-2-(2,3-dimethyl-7-oxothieno[2,3-d]pyridazin-6(7H)-yl)-N-(1-(4-methoxyphenyl-2-t)propan-2-yl)acetamide (Quotient Bioresearch) in assay buffer (6.5 nM assay concentration) is added to each well of the assay plate, which is then agitated on a plate shaker for 30 seconds. Next, a fixed amount of membranes in assay buffer (2 μg membranes) is added to each well of the assay plate, which is then spun for 30 seconds at 300 rpm in a tabletop Eppendorf centrifuge, and then incubated at room temperature for 20 minutes. Using a Tomtec harvester, the contents of the assay plate are transferred to Filtermat A (PerkinElmer® No. 1450-421) which prior to use is pre-soaked in 0.5% PEI (Sigma P3143) for 3 hours and dried at room temperature overnight. Following transfer, the Filtermat is washed 5 times with cold wash buffer (20 mM HEPES pH 7.3, 100 mM NaCl). The Filtermat is dried using a microwave oven and placed in a sample bag (PerkinElmer® No. 1450-432) with a scintillator sheet (PerkinElmer® No. 1450-411). The scintillator sheet is melted to the Filtermat using a heat block set to 65° C., placed in a MicroBeta® cartridge and read using a MicroBeta® scintillation counter. Binding curves are generated with a four-parameter logistic equation using GraphPad Prism® 6 and the inhibition constant Ki is reported as pKi.

human GPR139 receptor [2] = target: T1, human GPR139 receptor; test: Measurement of GPR139 Activation Via Calcium Signaling (FLIPR, T-REx-CHO cells); format: cell-based; settings: T-REx-CHO cells stably expressing human GPR139, 11-point dose response, 10 μM maximum concentration, read-out: GPR139 Potency (pEC50) (converted)
Experimental: Measurement of GPR139 Activation Via Calcium Signaling
This cell-based assay measures the ability of compounds to activate GPR139 in stably transfected T-REx™-CHO cells. T-REx™-CHO cells (Thermo Fisher Scientific®) are stably expressed with human GPR139 receptor, whose expression is controlled by a tetracycline-inducible element. The cells are cultured in medium containing F-12K nutrient mixture-Kaighn's modification, TripleLE™ Express (1×)-phenol red, Dulbecco's phosphate-buffered saline (1×), 10% tetracycline-free FBS, Blasticidin S HCl (10 μg/mL) and Hygromycin B (200 μg/mL). The cells are introduced into the wells of a 384-well black clear bottom plate (Costar®) at 10,000 cells/well. GPR139 receptor expression is induced with 2 μg/mL doxycycline (Sigma D9891). The plate is allowed to stand at room temperature for 10-30 minutes and then incubated at 37° C. and 5% CO2 for 17 hours prior to assay.
Culture media is removed from cells and 45 μL of 1× calcium dye (2.5 mM) is added to each well and incubated at 37° C. and 5% CO2 for 40 minutes. The plate is removed from the incubator and allowed to stand at RT for 20 minutes without a plate cover prior to measurement of calcium signaling. The calcium dye is prepared by adding 10 mL of assay buffer (Hank's Balanced Salt Solution (1×), 1 mM HEPES at pH 7.4) to one vial of calcium dye (FLIPR® Calcium 5 Assay Kit; Molecular Devices) at room temperature, vortexing the mixture until homogenous, and transferring the dye to a 250 mL flask using 10 mL of assay, buffer to rinse the vial. The dye is subsequently transferred to a conical flask, which is filled to the 200 mL mark with assay buffer, and 1 mL of […] probenecid solution (142.68 mg/mL in 1M NaOH aq) is added.
Example compounds suspended in DMSO are received from compound management in microtiter plates (0.25 μL/well) and are diluted in assay buffer (25 μL). Following incubation of the cell plate, the Example compounds are added to the cells (11-point dose response, 10 μM maximum concentration) using a FLIPR® Tetra system (Molecular Devices) and fluorescence is measured continuously for 1 minute. EC50 curves are generated with a four-parameter logistic equation using GraphPad Prism® 6, and activation of GPR139 for each example compound is reported as pEC50.

SMILES	Ki (human GPR139 receptor [1]) [nM]	EC50 (human GPR139 receptor [2]) [nM]
Cc1nn(C)c2c(=O)n(CC(=O)N[C@@H](C)c3ccc(C(F)(F)F)cn3)ncc12 [Example 60, (S)-2-(1,3-dimethyl-7-oxo-1,7-dihydro-6H-pyrazolo[3,4-d]pyridazin-6-yl)-N-(1-(5-(trifluoromethyl)pyridin-2-yl)ethyl)acetamide]	30200	214
Cc1ccc([C@H](C)NC(=O)Cn2ncc3c(c(C)nn3C3CC3)c2=O)cc1 [Example 122, (S)-2-(1-cyclopropyl-3-methyl-4-oxo-1,4-dihydro-5H-pyrazolo[3,4-d]pyridazin-5-yl)-N-(1-(p-tolyl)ethyl)acetamide]	245	83.2
Cc1nn(C2CC2)c2cnn(CC(=O)N[C@@H](C)c3ccc(C(F)(F)F)cn3)c(=O)c12 [Example 32]	30200	617
Cc1ccc([C@H](C)NC(=O)Cn2nc(C)c3c(cnn3C)c2=O)cc1 [Example 74, (S)-2-(1,7-dimethyl-4-oxo-1,4-dihydro-5H-pyrazolo[3,4-d]pyridazin-5-yl)-N-(1-(p-tolyl)ethyl)acetamide]	2450	93.3
Cc1ccc([C@H](C)NC(=O)Cn2ncc3c(c(C)cn3C3CC3)c2=O)c(C)c1 [Example 65, (S)-2-(1-cyclopropyl-3-methyl-4-oxo-1,4-dihydro-5H-pyrrolo[2,3-d]pyridazin-5-yl)-N-(1-(2,4-dimethylphenyl)ethyl)acetamide]	3.72	67.6
COc1ccc([C@H](C)NC(=O)Cn2ncc3c(c(C)nn3C(C)C)c2=O)cc1 [Example 17, (S)-2-(1-isopropyl-3-methyl-4-oxo-1,4-dihydro-5H-pyrazolo[3,4-d]pyridazin-5-yl)-N-(1-(4-methoxyphenyl)ethyl)acetamide]	2950	57.5
Cc1nn(C2CC2)c2cnn(CC(=O)NC(C)c3ccc4c(c3)OCCO4)c(=O)c12 (centres unmarked) [Example 106, 2-(1-cyclopropyl-3-methyl-4-oxo-1,4-dihydro-5H-pyrazolo[3,4-d]pyridazin-5-yl)-N-(1-(2,3-dihydrobenzo[b][1,4]dioxin-6-yl)ethyl)acetamide]	2000	57.5
Cc1ccc([C@H](C)NC(=O)Cn2ncc3ccn(C)c3c2=O)cc1 [Example 162, (S)-2-(1-methyl-7-oxo-1,7-dihydro-6H-pyrrolo[2,3-d]pyridazin-6-yl)-N-(1-(p-tolyl)ethyl)acetamide]	195	13.2
Cc1ccc([C@H](C)NC(=O)Cn2ncc3c(c(C)nn3C3CC3)c2=O)c(F)c1 [Example 108, (S)-2-(1-cyclopropyl-3-methyl-4-oxo-1,4-dihydro-5H-pyrazolo[3,4-d]pyridazin-5-yl)-N-(1-(2-fluoro-4-methylphenyl)ethyl)acetamide]	75.9	34.7
Cc1nn(C(C)(C)C)c2cnn(CC(=O)N[C@@H](C)c3ccc(C(F)(F)F)cc3)c(=O)c12 [Example 157, (S)-2-(1-(tert-butyl)-3-methyl-4-oxo-1,4-dihydro-5H-pyrazolo[3,4-d]pyridazin-5-yl)-N-(1-(4-(trifluoromethyl)phenyl)ethyl)acetamide]	234	126
Cc1ccc([C@H](C)NC(=O)Cn2ncc3c(c(C)nn3C3CC3)c2=O)cc1F [Example 130, (S)-2-(1-cyclopropyl-3-methyl-4-oxo-1,4-dihydro-5H-pyrazolo[3,4-d]pyridazin-5-yl)-N-(1-(3-fluoro-4-methylphenyl)ethyl)acetamide]	38	17.8
Cc1ccc([C@H](C)NC(=O)Cn2nc(C)c3c(C)nn(C)c3c2=O)cc1 [Example 20, (S)—N-(1-(p-tolyl)ethyl)-2-(1,3,4-trimethyl-7-oxo-1,7-dihydro-6H-pyrazolo[3,4-d]pyridazin-6-yl)acetamide]	178	41.7
Cc1ccc([C@H](C)NC(=O)Cn2ncc3c(C4CC4)nn(C)c3c2=O)cc1F [Example 151, (S)-2-(3-cyclopropyl-1-methyl-7-oxo-1,7-dihydro-6H-pyrazolo[3,4-d]pyridazin-6-yl)-N-(1-(3-fluoro-4-methylphenyl)ethyl)acetamide]	60.3	20.4
Cc1ccc([C@H](C)NC(=O)Cn2ncc3c(cnn3C)c2=O)cc1 [Example 33, (S)-2-(1-methyl-4-oxo-1,4-dihydro-5H-pyrazolo[3,4-d]pyridazin-5-yl)-N-(1-(p-tolyl)ethyl)acetamide]	5250	66.1
Cc1ccc([C@H](C)NC(=O)Cn2ncc3c(c(C(F)(F)F)nn3C)c2=O)cc1F [Example 171, (S)—N-(1-(3-fluoro-4-methylphenyl)ethyl)-2-(1-methyl-4-oxo-3-(trifluoromethyl)-1,4-dihydro-5H-pyrazolo[3,4-d]pyridazin-5-yl)acetamide]	24	41.7
Cc1nn(CC(=O)N[C@@H](C)c2ccc(C(F)(F)F)cn2)c(=O)c2c1c(C)nn2C1CC1 [Example 101, (S)-2-(1-cyclopropyl-3,4-dimethyl-7-oxo-1,7-dihydro-6H-pyrazolo[3,4-d]pyridazin-6-yl)-N-(1-(5-(trifluoromethyl)pyridin-2-yl)ethyl)acetamide]	282	398
